# In paper PMC12345137 (mBio, 2025):
# “Also recorded” adds a separate entry of the source. Read-outs that look alike come from different tables or passages of the source. Positions of bridges follow the written chain, without caps; N, C: chain ends. Residues, ends and D or L forms follow the SMILES beside them.
# Legend:
# [1] = tested on: S. aureus (SA) agr-III; conditions: b-lactamase, cited from earlier work
# [2] = tested on: methicillin resistant S. aureus (MRSA43484); assay type: in vivo, Balb/c female mice
# Description: The mouse model was performed under contract at Statens Serum Institut (DK) essentially as previously described ([64]). […] All animal experiments were approved by the National Committee of Animal Ethics, Denmark. Mice were anesthetized, and the hair was removed on a 2 cm^2 skin area on the back, and thereafter, the outermost layer of the skin was scraped off with a dermal curette to obtain a 1 cm^2 superficial skin lesion. For vehicle control and Fucidin treatment, 10 μL inoculum containing approximately 10^7 CFU of methicillin resistant S. aureus (MRSA43484) were spread on the skin lesions. […] This leads to the absolute application of 1 nmol, corresponding to ~10-fold less inhibitory AIP than previously tested in other murine epicutaneous infection models ([12], [13], [15]). After the inoculum had dried, the mice were placed in a cage and kept in a warming cabinet until fully awake. The topical skin treatment with Fucidin was initiated one day after inoculation (days 2, 3, and 4) by spreading 50 μL of Fucidin on the inoculated skin area once a day. Skin lesion size and body weight were measured on days 1, 2, and 4 of all mice. Mice were sacrificed on days 1 (n = 8 vehicle), 2 (n = 4 vehicle, Fucidin, 33), and 4 (n = 4 vehicle, Fucidin, 33), and the infected skin area was cut out and homogenized to determine the CFU count in the skin lesions. Statistical testing was conducted using one-way analysis of variance (ANOVA) with multiple comparisons (Dunnett’s test) and an alpha level of 0.05.
# [3] = tested on: S. aureus agr-I P3-YFP reporter strain; experiment: Quorum sensing inhibition resistance development experiment; assay type: cell-based, Staphylococcus aureus; conditions: flow cytometry
# Description: The next day, YFP expression levels were assessed by flow cytometry (YFP: excitation 500 nm, emission 541 nm), and the overnight cultures were diluted 1:250 in fresh TSB medium containing CAM and 33 or no peptide (final volume 2.0 mL) and incubated overnight at 37°C in a shaking incubator. The procedure was repeated in total for 15 days, and the passaged cultures were subsequently frozen at −80°C. The passaged cultures were inoculated from frozen stocks in 2.0 mL TSB medium containing CAM in 15 mL centrifugal tubes and incubated overnight at 37°C in a shaking incubator.
# [4] = tested on: S. aureus (SA) agr-IV; parameters: method as in ref (5) (a number printed in a supplementary file, which may have a reference list of its own: not looked up in the article's list); conditions: hemolysis; ref (5); cited from earlier work
# [5] = tested on: S. epidermidis (SE) agr-II; conditions: fluorescence; at 100 nM; ref (11); cited from earlier work
# [6] = tested on: S. epidermidis (SE) agr-III; conditions: fluorescence; at 10 µM; ref (11); cited from earlier work
molecule,measurement,setting,value
"CC[C@H](C)[C@@H]1NC(=O)[C@H](Cc2ccccc2)NC(=O)[C@H](CC(=O)O)NC(=O)[C@@H](NC(=O)[C@@H](NC(=O)[C@H](CO)NC(=O)[C@@H](N)Cc2ccc(O)cc2)[C@@H](C)O)CSC(=O)[C@H](CCSC)NC1=O [compound 1, S. aureus AIP-I] (H-YSTCDFIM; thioester 4-C)",IC50,[1]; ref (2),3.1 ± 1.3 nM
same,IC50,[1]; ref (4),3 nM
"NCCCC[C@H](N)C(=O)N[C@@H](Cc1ccc(O)cc1)C(=O)N[C@@H](Cc1ccc(O)cc1)C(=O)N1CCC[C@H]1C(=O)N[C@H]1CSC(=O)[C@H](Cc2ccccc2)NC(=O)[C@H](Cc2ccc(O)cc2)NC(=O)CNC(=O)[C@H](Cc2c[nH]c3ccccc23)NC1=O [compound 33, S. simulans AIP-II] (H-KYYPCWGYF; thioester 5-C)",skin lesion size compared with the vehicle control after 48 h,"[2]; 33: 100 μM in MRSA inoculum (10^7 CFU), single, Fucidin daily, P = 0.0174 (33), P = 0.0108 (fusidic acid)",significant reduction
same,skin lesion size compared with the vehicle control after 96 h,"[2]; 33: 100 μM in MRSA inoculum (10^7 CFU), single, Fucidin daily, P = 0.0249 (33), P = 0.0202 (fusidic acid)",significant reduction
same,decrease in bacterial load compared with vehicle control after 4 days,"[2]; 33: 100 μM single (P = 0.009), fusidic acid daily (P = 0.0168)",~ 60 fold
same,agr activity during daily passaging for 15 days,[3]; 33 at 2 nM or 100 nM,full repression of agr activity; also recorded: repressed agr activity
same,susceptibility to QS inhibition after 15 passages compared with non-passaged reporter strain,[3]; passaged cultures treated with 33 (10–0.08 nM),no change in potency; also recorded: remained equally susceptible
"S. aureus AIP-III D4A [compound 57, reference compound]",IC50,[4],0.11 nM
same,"inhibition at 100 nM, SE agr-II",[5],~ 70%
same,"inhibition at 10 µM, SE agr-III",[6],~ 25%
